Data published in patent US20150105252A1, “SUBSTITUTED PYRAZOLES AS HERBICIDES” (E I DU PONT DE NEMOURS AND COMPANY, priority 2013, published 2015).

What was measured:
nightshade = test: Test F preemergence; type: in vivo, Solanum ptycanthum
In short: (§1)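 Test chemicals in a non-phytotoxic solvent with surfactant were applied preemergence to seeds sown in silt loam, or postemergence to plants 2–18 cm tall (1- to 4-leaf stage). Plants were kept in a greenhouse for 14–21 days and then rated visually against controls on a 0 (no effect) to 100 (complete control) scale.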

radish, wild [1] = test: Test D postemergence; type: in vivo, Raphanus raphanistrum; details: scale 0 to 100
Description: (§2) Seeds of plant species selected from bluegrass (annual bluegrass, Poa annua), blackgrass (Alopecurus myosuroides), canarygrass (littleseed canarygrass, Phalaris minor), chickweed (common chickweed, Stellaria media), galium (catchweed bedstraw, Galium aparine), bromegrass, downy (downy bromegrass, Bromus tectorum), field poppy (Papaver rhoeas), field violet (Viola arvensis), foxtail, green (green foxtail, Setaria viridis), deadnettle (henbit deadnettle, Lamium amplexicaule), ryegrass, Italian (Italian ryegrass, Lolium multiflorum), kochia (Kochia scoparia), lambsquarters (Chenopodium album), oilseed rape (Brassica napus), pigweed (redroot pigweed, Amaranthus retroflexus), chamomile (scentless chamomile, Matricaria inodora), speedwell (bird's-eye speedwell, Veronica persica), barley, spring (spring barley, Hordeum vulgare), wheat, spring (spring wheat, Triticum aestivum), buckwheat, wild (wild buckwheat, Polygonum convolvulus), mustard, wild (wild mustard, Sinapis arvensis), oat, wild (wild oat, Avena fatua), radish, wild (wild radish, Raphanus raphanistrum), windgrass (Apera spica-venti), Russian thistle (Salsola kali), barley, winter (winter barley, Hordeum vulgare), and wheat, winter (winter wheat, Triticum aestivum) were planted into a silt loam soil and treated preemergence with test chemicals formulated in a non-phytotoxic solvent mixture which included a surfactant.
(§3) At the same time, these species were planted in pots containing Redi-Earth® planting medium (Scotts Company, 14111 Scottslawn Road, Marysville, Ohio 43041) comprising spaghnum peat moss, vermiculite, wetting agent and starter nutrients and treated with postemergence applications of the test chemicals formulated in the same manner. Plants ranged in height from 2 to 18 cm (1- to 4-leaf stage). Treated plants and controls were maintained in a controlled growth environment for 14 to 21 days after which time all species were compared to controls and visually evaluated. Plant response ratings, summarized in Table D, are based on a scale of 0 to 100 where 0 is no effect and 100 is complete control. A dash (-) response means no test result.

dayflower, VA = test: Test F preemergence; type: in vivo, Commelina virginica
Description: (§4) Seeds of plant species selected from corn (Zea mays), soybean (Glycine max), velvetleaf (Abutilon theophrasti), lambsquarters (Chenopodium album), wild poinsettia (Euphorbia heterophylla), pigweed, palmer (palmer pigweed, Amaranthus palmeri), common waterhemp (Amaranthus rudis), surinam grass (Brachiaria decumbens), large crabgrass (Digitaria sanguinalis), crabgrass, Brazil (Brazilian crabgrass, Digitaria horizontalis), fall panicum (Panicum dichotomiflorum), giant foxtail (Setaria faberii), green foxtail (Setaria viridis), goosegrass (Eleusine indica), johnsongrass (Sorghum halepense), common ragweed (Ambrosia elation), barnyardgrass (Echinochloa crus-galli), southern sandbur (Cenchrus echinatus), arrowleaf sida (Sida rhombifolia), Italian ryegrass (Lolium multiflorum), dayflower, VA (Virginia (VA) dayflower, Commelina virginica), field bindweed (Convolvulus arvensis), cocklebur (common cocklebur, Xanthium strumarium), morningglory (Ipomoea coccinea), nightshade (eastern black nightshade, Solanum ptycanthum), kochia (Kochia scoparia), yellow nutsedge (Cyperus esculentus), and hairy beggarticks (Bidens pilosa), were planted into a silt loam soil and treated preemergence with test chemicals formulated in a non-phytotoxic solvent mixture which included a surfactant.
(§5) At the same time, plants from these crop and weed species and also horseweed (Canada horseweed, Conyza canadensis), smartweed (ladysthumb smartweed, Polygonum persicaria), waterhemp_RES1, (ALS & Triazine resistant common waterhemp, Amaranthus rudis), and waterhemp_RES2, (ALS & HPPD resistant common waterhemp, Amaranthus rudis) were treated with postemergence applications of test chemicals formulated in the same manner. Plants ranged in height from 2 to 18 cm for postemergence treatments (1- to 4-leaf stage). Treated plants and controls were maintained in a greenhouse for 14 to 21 days, after which time all species were compared to controls and visually evaluated. Plant response ratings, summarized in Table F, are based on a scale of 0 to 100 where 0 is no effect and 100 is complete control. A dash (-) response means no test result.

soybean = test: Test F preemergence; type: in vivo, Glycine max
Description: as §4, §5

field poppy = test: Test D postemergence; type: in vivo, Papaver rhoeas; details: scale 0 to 100
Description: as §2, §3

wild poinsettia = test: Test F preemergence; type: in vivo, Euphorbia heterophylla
In short: as §1

kochia = test: Test D postemergence; type: in vivo, Kochia scoparia; details: scale 0 to 100
Description: as §2, §3

radish, wild [2] = test: Test D preemergence; type: in vivo, Raphanus raphanistrum; details: scale 0 to 100
Description: as §2, §3

large crabgrass = test: Test F preemergence; type: in vivo, Digitaria sanguinalis
Description: as §4, §5

oilseed rape = test: Test D preemergence; type: in vivo, Brassica napus; details: scale 0 to 100
Description: as §2, §3

foxtail, green = test: Test D postemergence; type: in vivo, Setaria viridis; details: scale 0 to 100
Description: as §2, §3

morningglory = test: Test F preemergence; type: in vivo, Ipomoea coccinea
Description: as §4, §5

lambsquarters = test: Test F preemergence; type: in vivo, Chenopodium album
In short: as §1

galium = test: Test D postemergence; type: in vivo, Galium aparine; details: scale 0 to 100
Description: as §2, §3

[3] = Preemergence, 31 g ai/ha, scale 0 to 100
[4] = Preemergence, 62 g ai/ha, scale 0 to 100
[5] = Preemergence, 125 g ai/ha, scale 0 to 100
[6] = preemergence, 8 g ai/ha, scale 0 to 100, 100 is complete control
[7] = preemergence, 16 g ai/ha, scale 0 to 100, 100 is complete control

## CCc1cc(C(=O)NCC(F)(F)F)nn1Cc1ccnc(C(F)(F)F)c1 [Compound 78, 5-ethyl-N-(2,2,2-trifluoroethyl)-1-[[(2-trifluoromethyl)-4-pyridinyl]methyl]-1H-pyrazole-3-carboxamide]
nightshade; [3]
  Plant response rating, Nightshade: 95
nightshade; [4]
  Plant response rating, Nightshade: 98
nightshade; [5]
  Plant response rating, Nightshade: 98
nightshade; [6]
  Plant response rating, Nightshade: 0
nightshade; [7]
  Plant response rating, Nightshade: 60
radish, wild [1]; Postemergence, 31 g ai/ha
  Radish, Wild plant response rating: 40
radish, wild [1]; Postemergence, 125 g ai/ha
  Radish, Wild plant response rating: 60
radish, wild [1]; Postemergence, 250 g ai/ha
  Radish, Wild plant response rating: 75
radish, wild [1]; postemergence, 62 g ai/ha
  Radish, Wild plant response rating: 50
dayflower, VA; [3]
  Plant response rating, Dayflower, VA: 50
dayflower, VA; [4]
  Plant response rating, Dayflower, VA: 95
dayflower, VA; [5]
  Plant response rating, Dayflower, VA: 100
dayflower, VA; [6]
  Plant response rating, Dayflower, VA: 0
dayflower, VA; [7]
  Plant response rating, Dayflower, VA: 0
soybean; [3]
  Plant response rating, Soybean: 95
soybean; [4]
  Plant response rating, Soybean: 80
soybean; [5]
  Plant response rating, Soybean: 95
soybean; [6]
  Plant response rating, Soybean: 0
soybean; [7]
  Plant response rating, Soybean: 0
Field poppy; Postemergence, 31 g ai/ha
  Field Poppy plant response rating: 55
Field poppy; Postemergence, 125 g ai/ha
  Field Poppy plant response rating: 70
Field poppy; Postemergence, 250 g ai/ha
  Field Poppy plant response rating: 85
Field poppy; postemergence, 62 g ai/ha
  Field Poppy plant response rating: 65
Wild poinsettia; [3]
  Plant response rating, Wild Poinsettia: 50
Wild poinsettia; [4]
  Plant response rating, Wild Poinsettia: 65
Wild poinsettia; [5]
  Plant response rating, Wild Poinsettia: 98
Wild poinsettia; [6]
  Plant response rating, Wild Poinsettia: 0
Wild poinsettia; [7]
  Plant response rating, Wild Poinsettia: 0
kochia; Postemergence, 31 g ai/ha
  Kochia plant response rating: 75
kochia; Postemergence, 125 g ai/ha
  Kochia plant response rating: 80
kochia; Postemergence, 250 g ai/ha
  Kochia plant response rating: 75
kochia; postemergence, 62 g ai/ha
  Kochia plant response rating: 80
radish, wild [2]; 31 g ai/ha
  Plant response rating, Radish, Wild: 100
radish, wild [2]; 62 g ai/ha
  Plant response rating, Radish, Wild: 100
radish, wild [2]; 125 g ai/ha
  Plant response rating, Radish, Wild: 100
radish, wild [2]; 250 g ai/ha
  Plant response rating, Radish, Wild: 100
Large crabgrass; [3]
  Plant response rating, Large Crabgrass: 100
Large crabgrass; [4]
  Plant response rating, Large Crabgrass: 100
Large crabgrass; [5]
  Plant response rating, Large Crabgrass: 100
Large crabgrass; [6]
  Plant response rating, Large Crabgrass: 75
Large crabgrass; [7]
  Plant response rating, Large Crabgrass: 98
Oilseed rape; 31 g ai/ha
  Plant response rating, Oilseed Rape: 35
Oilseed rape; 62 g ai/ha
  Plant response rating, Oilseed Rape: 80
Oilseed rape; 125 g ai/ha
  Plant response rating, Oilseed Rape: 100
Oilseed rape; 250 g ai/ha
  Plant response rating, Oilseed Rape: 100
foxtail, green; Postemergence, 31 g ai/ha
  Foxtail, Green plant response rating: 25
foxtail, green; Postemergence, 125 g ai/ha
  Foxtail, Green plant response rating: 70
foxtail, green; Postemergence, 250 g ai/ha
  Foxtail, Green plant response rating: 80
foxtail, green; postemergence, 62 g ai/ha
  Foxtail, Green plant response rating: 60
morningglory; [3]
  Plant response rating, Morningglory: 100
morningglory; [4]
  Plant response rating, Morningglory: 90
morningglory; [5]
  Plant response rating, Morningglory: 100
morningglory; [6]
  Plant response rating, Morningglory: 0
morningglory; [7]
  Plant response rating, Morningglory: 40
lambsquarters; [3]
  Plant response rating, Lambsquarters: 100
lambsquarters; [4]
  Plant response rating, Lambsquarters: 100
lambsquarters; [5]
  Plant response rating, Lambsquarters: 100
lambsquarters; [6]
  Plant response rating, Lambsquarters: 50
lambsquarters; [7]
  Plant response rating, Lambsquarters: 65
galium; Postemergence, 31 g ai/ha
  Galium plant response rating: 60
galium; Postemergence, 125 g ai/ha
  Galium plant response rating: 80
galium; Postemergence, 250 g ai/ha
  Galium plant response rating: 85
galium; postemergence, 62 g ai/ha
  Galium plant response rating: 70

## CCc1cc(C(=O)NC(C)C)nn1Cc1ccnc(C(F)(F)F)c1 [Compound 103]
radish, wild [1]; Postemergence, 31 g ai/ha
  Radish, Wild plant response rating: 25
radish, wild [1]; Postemergence, 125 g ai/ha
  Radish, Wild plant response rating: 50
radish, wild [1]; Postemergence, 250 g ai/ha
  Radish, Wild plant response rating: 60
radish, wild [1]; postemergence, 62 g ai/ha
  Radish, Wild plant response rating: 35
Field poppy; Postemergence, 31 g ai/ha
  Field Poppy plant response rating: 40
Field poppy; Postemergence, 125 g ai/ha
  Field Poppy plant response rating: 60
Field poppy; Postemergence, 250 g ai/ha
  Field Poppy plant response rating: 70
Field poppy; postemergence, 62 g ai/ha
  Field Poppy plant response rating: 55
kochia; Postemergence, 31 g ai/ha
  Kochia plant response rating: 60
kochia; Postemergence, 125 g ai/ha
  Kochia plant response rating: 75
kochia; Postemergence, 250 g ai/ha
  Kochia plant response rating: 75
kochia; postemergence, 62 g ai/ha
  Kochia plant response rating: 65
radish, wild [2]; 31 g ai/ha
  Plant response rating, Radish, Wild: 95
radish, wild [2]; 62 g ai/ha
  Plant response rating, Radish, Wild: 100
radish, wild [2]; 125 g ai/ha
  Plant response rating, Radish, Wild: 100
radish, wild [2]; 250 g ai/ha
  Plant response rating, Radish, Wild: 100
Oilseed rape; 31 g ai/ha
  Plant response rating, Oilseed Rape: 25
Oilseed rape; 62 g ai/ha
  Plant response rating, Oilseed Rape: 30
Oilseed rape; 125 g ai/ha
  Plant response rating, Oilseed Rape: 35
Oilseed rape; 250 g ai/ha
  Plant response rating, Oilseed Rape: 95
foxtail, green; Postemergence, 31 g ai/ha
  Foxtail, Green plant response rating: 30
foxtail, green; Postemergence, 125 g ai/ha
  Foxtail, Green plant response rating: 35
foxtail, green; Postemergence, 250 g ai/ha
  Foxtail, Green plant response rating: 65
foxtail, green; postemergence, 62 g ai/ha
  Foxtail, Green plant response rating: 20
galium; Postemergence, 31 g ai/ha
  Galium plant response rating: 55
galium; Postemergence, 125 g ai/ha
  Galium plant response rating: 75
galium; Postemergence, 250 g ai/ha
  Galium plant response rating: 80
galium; postemergence, 62 g ai/ha
  Galium plant response rating: 70
